Assay results from patent US7026318B2 (Shionogi & Co., Ltd., priority 2000, dated 2006).
Like-named read-outs stand apart in the source and are kept apart here.

Legend:
[1] = molecular target: human type I enzyme (sPLA2) (Homo sapiens, UniProt P04054); assay: Inhibition test of human secretory phospholipase A2, chromogenic assay, type I enzyme; type: biochemical; conditions: recombinant human sPLA2 type I, chromogenic assay, 30 min; read-out: IC50 type I
[2] = molecular target: T1, human type II enzyme (sPLA2) (Homo sapiens, UniProt P14555); assay: Inhibition test of human secretory phospholipase A2, chromogenic assay, type II enzyme; type: biochemical; conditions: human sPLA2 type II, chromogenic assay, 30 min; read-out: IC50 type II
T1 sequence (P14555 21-144): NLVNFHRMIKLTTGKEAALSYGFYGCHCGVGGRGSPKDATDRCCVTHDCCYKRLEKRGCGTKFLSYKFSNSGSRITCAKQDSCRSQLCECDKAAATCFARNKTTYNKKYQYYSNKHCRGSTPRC

human type V sPLA2 = molecular target: T2, human type V sPLA2 (Homo sapiens, UniProt P39877); assay: Inhibition test of human secretory phospholipase A2, chromogenic assay, type V enzyme; type: biochemical; conditions: human sPLA2 type V (CHO supernatant), chromogenic assay, 45 min; read-out: IC50 type V
T2 construct: made in house; unpurified culture supernatant
T2 sequence (P39877 21-138): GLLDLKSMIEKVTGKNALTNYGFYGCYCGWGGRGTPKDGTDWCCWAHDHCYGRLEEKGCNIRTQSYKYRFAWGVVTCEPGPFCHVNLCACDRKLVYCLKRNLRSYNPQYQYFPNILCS

human type X sPLA2 [3] = molecular target: T3, human type X sPLA2 (Homo sapiens, UniProt O15496); assay: Inhibition test of human secretory phospholipase A2, chromogenic assay, type X enzyme; type: biochemical
T3 construct: made in house; unpurified culture supernatant
T3 sequence (O15496 43-165): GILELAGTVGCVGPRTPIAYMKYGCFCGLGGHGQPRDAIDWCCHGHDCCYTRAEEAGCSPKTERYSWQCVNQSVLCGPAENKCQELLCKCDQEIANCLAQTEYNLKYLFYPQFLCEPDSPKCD

human type X sPLA2 [4] = molecular target: T3, human type X sPLA2; assay: Human type X sPLA2-induced oleic acid release in human colon carcinoma HT-29 cells; type: cell-based; conditions: compound 10 μM, 100 nM human type X sPLA2, 30 min, percentage of the increase by type X sPLA2 (no treatment group = 100)
Protocol: Examination 15: Effects of sPLA2 Inhibitors on Human Type X sPLA2-Induced Oleic Acid Release in Human Colon Calcinoma Cell Lines, HT-29 Cells.
Human colon calcinoma cell lines, HT-29 cells (obtained from ATCC) were cultured in DMEM supplemented with 10% fetal calf serum. The cells were washed by phosphate-buffered saline (PBS), detached from culture plates by treatment with trypsin/EDTA solution and further washed by PBS. The resulting cells were resuspended in Hanks' buffered saline containing 0.1% bovine serum albumin (BSA) at a density of 12.5×10^6 cells/mL. Aliquots of the cell suspension (0.4 ml) were transferred into polypropylene tubes and test compounds dissolved in DMSO solution (final concentration; 10 μM) were added. After preincubation for 10 min at 37° C., 100 nM purified human type X sPLA2 enzyme (Hanasaki et al J. Biol. Chem. (1999) 274, 34203–34211) was added (final volume of 0.5 mL). After incubation for 30 min at 37° C., the reaction was stopped by the addition of 2 ml Dole's reagent (heptane:2-propanol:1M H2SO4=10:40:1, v/v/v).

human type X sPLA2 [5] = molecular target: T3, human type X sPLA2; assay: Type X sPLA2-induced PGE2 production in human colon carcinoma HT-29 cells; type: cell-based; conditions: compound 10 μM; TNF-α-treated HT-29 cells; 100 nM human type X sPLA2, 3 h; percentage of PGE2 produced by type X sPLA2 (no treatment group = 100)
Protocol: Examination 16: Effects of sPLA2 Inhibitors on Type X sPLA2-Induced PGE2 Production in Human Colon Carcinoma Cell Lines, HT-29 Cells.
HT-29 cells were seeded into 24-well plates at a density of 2.5×10^5 cells/well. After incubation for 24 h, the cells were washed three times with PBS and incubated with 30 ng/mL of recombinant human tumor necrosis factor-α (R&D Systems, Inc.) in DMEM medium supplemented with 10% fetal bovine serum for 18 h at 37° C. After washing with PBS, the cells were preincubated with or without test compounds (at a final concentration of 10 μM; dissolved in DMSO) in Hanks' buffered saline containing 0.1% BSA for 10 min at 37° C., and then stimulated with 100 nM purified human type X sPLA2 enzyme in a final volume of 0.5 mL. After incubation for 3 h at 37° C, the culture supernatant was collected following the centrifugation for the removal of floating cells, and its PGE2 content was quantified with an enzyme-immunoassay kit (Cayman Chemicals Co.). From each data, the value in the absence of type X sPLA2 was subtracted. The amount of PGE2 in the presence of each test compound was expressed as the percentage of the PGE2 content produced by the addition of type X sPLA2 enzyme.

[6] = human sPLA2 type X (CHO supernatant), chromogenic assay, 30 min, read-out: IC50 type X

Sequence of human type I enzyme (sPLA2) (P04054 23-148): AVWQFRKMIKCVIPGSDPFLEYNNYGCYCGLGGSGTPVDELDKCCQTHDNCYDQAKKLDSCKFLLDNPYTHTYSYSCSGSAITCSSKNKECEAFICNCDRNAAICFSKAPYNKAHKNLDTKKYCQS

| SMILES | melting point [°C] | IC50 [1] [nM] | IC50 [2] [nM] | IC50 (human type V sPLA2) [nM] | IC50 (human type X sPLA2 [3]) [nM] | Oleic acid release (human type X sPLA2 [4]) [%] | PGE2 production (human type X sPLA2 [5]) [%] | IC50 (human type X sPLA2 [3]; [6]) [nM] |
| --- | --- | --- | --- | --- | --- | --- | --- | --- |
| Cc1cn2c(Cc3ccccc3)c(CC(C)C)c(CC(N)=O)c2c(OCC(=O)NS(C)(=O)=O)n1 [Compound I-35] | 188 to 190 |  |  |  |  |  |  |  |
| Cc1cc(OCC(=O)O)c2c(C(=O)C(N)=O)c(CC(C)C)n(Cc3ccccc3)c2c1 [Compound I-13] | 220 to 221.5 | > 700 | > 1000 | > 1000 | 28 |  |  |  |
| CC(C)Cc1c(C(=O)C(N)=O)c2c(OCC(=O)NS(C)(=O)=O)cccc2n1Cc1ccccc1 [Compound I-23] |  | > 700 | > 1000 | > 1000 | 6 | −2.0 ± 5.1 | 9.0 ± 28.1 |  |
| CCS(=O)(=O)NC(=O)COc1nc(C)cn2c(Cc3ccccc3)c(CC(C)C)c(C(=O)C(N)=O)c12 [Compound I-17] | 214 to 215 |  |  |  |  |  |  |  |
| CCCCc1c(C(=O)C(N)=O)c2c(OCC(=O)O)nc(C)cn2c1Cc1ccccc1 [Compound I-5] | 205 to 207 |  |  |  |  |  |  |  |
| CCCS(=O)(=O)NC(=O)COc1nc(C)cn2c(Cc3ccccc3)c(CC(C)C)c(C(=O)C(N)=O)c12 [Compound I-18] | 205 to 207 |  |  |  |  |  |  |  |
| CCCS(=O)(=O)NC(=O)COc1cccc2c1c(C(=O)C(N)=O)c(CC(C)C)n2Cc1ccccc1 | 181 to 183 |  |  |  |  |  |  |  |
| CCCCS(=O)(=O)NC(=O)COc1cccc2c1c(C(=O)C(N)=O)c(CC(C)C)n2Cc1ccccc1 | 219.5 to 221 |  |  |  |  |  |  |  |
| CC(C)Cc1c(C(=O)C(N)=O)c2c(OCC(=O)O)cccc2n1-c1ccccc1 [Compound I-14] | 200.5 to 202 |  |  |  |  |  |  |  |
| CC(C)Cc1c(C(=O)C(N)=O)c2c(OCC(=O)NS(=O)(=O)C(C)C)cccc2n1Cc1ccccc1 | 218.5 to 220 |  |  |  |  |  |  |  |
| CCS(=O)(=O)NC(=O)COc1cccc2c1c(C(=O)C(N)=O)c(CC(C)C)n2Cc1ccccc1 | 200 to 201 |  |  |  |  |  |  |  |
| Cc1cn2c(Cc3ccccc3)c(Cc3ccccc3)c(C(=O)C(N)=O)c2c(OCC(=O)O)n1 [Compound I-7] | 258 to 260 |  |  |  |  |  |  |  |
| Cc1cn2c(CCc3ccccc3)c(CC(C)C)c(C(=O)C(N)=O)c2c(OCC(=O)O)n1 [Compound I-4] | 202 to 203 |  |  |  |  | 13.8 ± 1.8 | 35.3 ± 40.2 |  |
| CC(C)Cc1c(CC(N)=O)c2c(OCC(=O)NS(=O)(=O)C(C)C)cccc2n1Cc1ccccc1 [Compound I-34] | 189 to 190 |  |  |  |  |  |  |  |
| Cc1cn2c(Cc3ccccc3)c(CC(C)C)c(CC(N)=O)c2c(OCC(=O)NS(=O)(=O)C(C)C)n1 [Compound I-36] | 162 to 163 |  |  |  |  |  |  |  |
| Cc1cc(OCC(=O)NS(=O)(=O)c2ccccc2)c2c(C(=O)C(N)=O)c(CC(C)C)c(Cc3ccccc3)n2n1 [Compound I-32] |  | > 700 | > 1000 | > 1000 |  |  |  | 46 |
| Cc1cn2c(Cc3ccccc3)c(CC(C)C)c(C(=O)C(N)=O)c2c(OCC(=O)NS(=O)(=O)C(C)C)n1 [Compound I-19] | 196 to 198 |  |  |  |  |  |  |  |
| Cc1cc(OCC(=O)NS(=O)(=O)c2ccccc2)c2c(C(=O)C(N)=O)c(CC(C)C)n(Cc3ccccc3)c2c1 [Compound I-24] | 145 to 147 | > 700 | > 1000 | > 1000 | 23 |  |  |  |
| CC(C)Cc1c(C(=O)C(N)=O)c2c(OCC(=O)O)cccc2n1CC1CCCCC1 [Compound I-12] | 195.5 to 197 | > 700 | > 1000 | > 1000 | 32 |  |  |  |
| CC(C)Cc1c(C(=O)C(N)=O)c2c(OCC(=O)O)cccc2n1Cc1ccc(F)cc1 [Compound I-11] | 172 to 173.5 | > 700 | > 1000 | > 1000 | 12 |  |  |  |
| Cc1cc(OCC(=O)O)c2c(C(=O)C(N)=O)c(CC(C)C)c(Cc3ccccc3)n2n1 [Compound I-9] | 245 to 247 | > 700 | > 1000 | > 1000 |  |  |  | 22 |
| Cc1cn2c(CC3CCCCC3)c(CC(C)C)c(C(=O)C(N)=O)c2c(OCC(=O)O)n1 [Compound I-2] | 209 to 210 | > 700 | > 1000 | > 1000 |  |  |  | 43 |
| Cc1cn2c(Cc3ccccc3)c(CC(C)C)c(C(=O)C(N)=O)c2c(OCC(=O)O)n1 [Compound I-1] | 206 to 208 | > 700 | > 1000 | > 1000 |  |  |  | 32 |
| Cc1cn2c(CC3CCCC3)c(CC(C)C)c(C(=O)C(N)=O)c2c(OCC(=O)O)n1 [Compound I-3] | 193 to 194.5 | > 700 | > 1000 | > 1000 |  |  |  | 48 |
| Cc1cc(OCC(=O)NS(C)(=O)=O)c2c(C(=O)C(N)=O)c(CC(C)C)n(Cc3ccccc3)c2c1 [Compound I-25] | 211 to 214 | > 700 | > 1000 | > 1000 | 7 |  |  |  |
| Cc1cn2c(Cc3ccccc3)c(CC(C)C)c(C(=O)C(N)=O)c2c(OCC(=O)NS(=O)(=O)c2ccccc2)n1 [Compound I-15] | 193 to 195 | > 700 | > 1000 | > 1000 |  |  |  | 37 |
| CC(C)Cc1c(C(=O)C(N)=O)c2c(OCC(=O)NS(=O)(=O)c3ccccc3)cccc2n1Cc1ccccc1 [Compound I-21] |  |  |  |  | 8 | 11.8 ± 0.6 | −6.6 ± 7.1 |  |
| Cc1cn2c(Cc3ccccc3)c(CC(C)C)c(C(=O)C(N)=O)c2c(OCC(=O)NS(C)(=O)=O)n1 [Compound I-16] | 211 to 212 |  |  |  |  |  |  |  |
